Assay results: patent US7879887B2, “α-amino acid derivatives and medicaments containing the same as an active ingredient” (Nissan Chemical Industries, Ltd., priority 2006, dated 2011)

Assays:
[1] = tested on: colon carcinoma cell line SW620; experiment: Cell proliferation inhibitory activity, SW620; type: cell-based, human; details: Homo sapiens, SW-620, 96 h, cells counted 4 days later with Cell Counting Kit-8
Summary of the method: (§1)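 Cells were exposed to serial concentrations of test substance at 37° C in 5% CO2 for 4 days, then counted with Cell Counting Kit-8. IC50 was derived with substance-free wells set as 0% inhibition and wells lacking both substance and cells as 100%.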

Aurora A = target: T1, Aurora A (Homo sapiens, UniProt O14965); experiment: In vitro kinase assay, Aurora A; type: biochemical; details: recombinant protein (Upstate)
T1 construct: purchased Upstate Inc. 14-511
T1 sequence (O14965 1-403): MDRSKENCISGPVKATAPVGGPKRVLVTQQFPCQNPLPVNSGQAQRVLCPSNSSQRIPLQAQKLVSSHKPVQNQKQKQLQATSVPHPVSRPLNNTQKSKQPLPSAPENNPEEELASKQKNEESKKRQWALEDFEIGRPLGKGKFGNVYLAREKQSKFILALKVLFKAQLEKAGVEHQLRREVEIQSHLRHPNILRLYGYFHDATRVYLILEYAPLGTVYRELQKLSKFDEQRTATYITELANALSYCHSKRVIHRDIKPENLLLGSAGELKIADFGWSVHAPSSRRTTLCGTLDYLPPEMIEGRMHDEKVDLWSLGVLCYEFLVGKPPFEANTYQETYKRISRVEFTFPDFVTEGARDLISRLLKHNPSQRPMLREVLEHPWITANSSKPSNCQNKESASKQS
Summary of the method: (§2)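 Recombinant human enzymes assayed per supplier protocol. IC50 derived with compound-free wells set as 0% inhibition and compound- and enzyme-free wells as 100% inhibition.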

CDK1/Cyclin B complex = target: T2, CDK1/Cyclin B complex (Homo sapiens, UniProt P06493); experiment: In vitro kinase assay, CDK1/Cyclin B complex; type: biochemical; details: recombinant protein (Upstate)
T2 construct: purchased Upstate Inc. 14-450
Summary of the method: as §2

[2] = tested on: ovarian cancer cell line IGROV1; experiment: Cell proliferation inhibitory activity, IGROV1; type: cell-based; details: Homo sapiens, IGROV-1, 96 h, cells counted 4 days later with Cell Counting Kit-8
Summary of the method: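 Suspended cells were added to test substance solutions at a range of concentrations and cultured for 4 days at 37° C in a 5% CO2 incubator. Viable cell numbers were then determined by CCK-8.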

leukemia cell line KG-1a = experiment: Cell proliferation inhibitory activity, KG-1a; type: cell-based; details: Homo sapiens, 96 h, cells counted 4 days later with Cell Counting Kit-8
Summary of the method: as §1

[3] = tested on: breast cancer cell line MDA-MB-231; experiment: Cell proliferation inhibitory activity, MDA-MB-231; type: cell-based; details: Homo sapiens, 96 h, cells counted 4 days later with Cell Counting Kit-8
Summary of the method: as §1

[4] = tested on: lung carcinoma cell line NCI-H460; experiment: Cell proliferation inhibitory activity, NCI-H460; type: cell-based; details: Homo sapiens, 96 h, cells counted 4 days later with Cell Counting Kit-8
Summary of the method: as §1

[5] = tested on: prostate cancer cell line DU 145; experiment: Cell proliferation inhibitory activity, DU 145; type: cell-based, human; details: Homo sapiens, 96 h, cells counted 4 days later with Cell Counting Kit-8
Summary of the method: as §1

[6] = tested on: pancreatic cancer cell line MIAPaCa-2; experiment: Cell proliferation inhibitory activity, MIAPaCa-2; type: cell-based; details: Homo sapiens, MIA PaCa-2, 96 h; cells counted 4 days later, Cell Counting Kit-8
Protocol: Evaluations were carried out using colon carcinoma cell line SW620 (Cat. No. CCL-227), lung carcinoma cell line NCI-H460 (Cat. No. HTB-177), prostate cancer cell line DU 145 (Cat. No. HTB-81), breast cancer cell line MDA-MB-231 (Cat. No. HTB26) and leukemia cell line KG-1a (Cat. No. CCL-246.1) purchased from ATCC, pancreatic cancer cell line MIAPaCa-2 (Cat. No. CRL-1420) purchased from Dainippon Pharmaceutical, and ovarian cancer cell line IGROV1 received from the Netherland Cancer Institute. The cells were cultured under the conditions recommended by the supplier for each cell line, or with respect to IGROV1, according to the method described in Cancer Res. 59: 4559-4563, 1999. Cells suspended in media were added to solutions containing the test substances at various concentrations followed by culturing in a 5% CO2 incubator at 37° C. The numbers of cells were counted 4 days later with the Cell Counting Kit-8. IC50 values were calculated by assigning measured values in the case of not containing a test substance to an inhibition of 0%, and assigning measured values in the case of not containing a test substance or cells to an inhibition of 100%.

T2 sequence (P06493 whole entry): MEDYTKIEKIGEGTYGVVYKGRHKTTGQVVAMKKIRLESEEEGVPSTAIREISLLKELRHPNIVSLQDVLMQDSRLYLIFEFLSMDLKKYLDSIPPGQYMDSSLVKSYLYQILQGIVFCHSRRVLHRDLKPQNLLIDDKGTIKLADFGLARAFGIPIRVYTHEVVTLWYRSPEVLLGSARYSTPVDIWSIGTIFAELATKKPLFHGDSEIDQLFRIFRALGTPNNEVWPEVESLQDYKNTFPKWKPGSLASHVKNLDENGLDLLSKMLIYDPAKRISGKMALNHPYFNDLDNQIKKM
T2 sequence (P14635 whole entry partner): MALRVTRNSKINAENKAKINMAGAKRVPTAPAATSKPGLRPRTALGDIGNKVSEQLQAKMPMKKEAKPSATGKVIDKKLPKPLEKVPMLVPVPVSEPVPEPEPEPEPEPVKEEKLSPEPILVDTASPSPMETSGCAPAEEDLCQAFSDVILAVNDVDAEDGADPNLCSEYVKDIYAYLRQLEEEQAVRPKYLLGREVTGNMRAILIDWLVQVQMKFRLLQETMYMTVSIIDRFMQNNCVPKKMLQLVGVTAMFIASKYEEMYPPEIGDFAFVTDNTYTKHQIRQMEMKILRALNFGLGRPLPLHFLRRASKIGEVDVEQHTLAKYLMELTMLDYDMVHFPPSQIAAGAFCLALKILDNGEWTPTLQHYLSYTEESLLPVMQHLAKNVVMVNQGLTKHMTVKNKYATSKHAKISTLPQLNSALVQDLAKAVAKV

Row | Compound | IC50 [1] [nM] | IC50 (Aurora A) [nM] | IC50 (CDK1/Cyclin B complex) [nM] | IC50 [2] [nM] | IC50 (leukemia cell line KG-1a) [nM] | IC50 [3] [nM] | IC50 [4] [nM] | IC50 [5] [nM] | IC50 [6] [nM]
1 | O=C(CNc1ccc(Cl)c(O)c1)Nc1nc2ccc3[nH]ncc3c2s1 [compound 6] | 1500 | 257 | 255 | 4300 | < 100 | 2600 | – | – | –
2 | CC(=O)Nc1cc(NCC(=O)Nc2nc3ccc4[nH]ncc4c3s2)ccc1Cl [compound 16] | 1200 | 278 | – | – | < 100 | 4400 | 3200 | 3200 | 4400
3 | CC(C)(Nc1cccc(O)c1)C(=O)Nc1nc2ccc3[nH]ncc3c2s1 [compound 33] | 400 | 29 | 115 | 2700 | < 100 | 2000 | 3600 | 1700 | 4500
4 | CC(C)(Nc1ccc(Cl)cc1)C(=O)Nc1nc2ccc3[nH]ncc3c2s1 [compound 35] | 700 | 428 | – | – | < 100 | – | – | 2500 | –
5 | CC(=O)Nc1cc(NC(C)(C)C(=O)Nc2nc3c(C(F)(F)F)cc4[nH]ncc4c3s2)ccc1Cl [compound 53] | 1300 | 227 | 420 | – | 300 | 4000 | 2400 | 1500 | 4700
6 | CNC(=O)c1cc(NC(C)(C)C(=O)Nc2nc3c(C(F)(F)F)cc4[nH]ncc4c3s2)ccc1Cl [compound 55] | 300 | 185 | 73 | 2700 | < 100 | 3200 | 800 | 900 | 4100
7 | CCNC(=O)c1cc(NC(C)(C)C(=O)Nc2nc3c(C(F)(F)F)cc4[nH]ncc4c3s2)ccc1F [compound 58] | 500 | – | 186 | – | 300 | 4700 | 1300 | 900 | 4000
8 | CCNC(=O)c1cc(NC(C)(C)C(=O)Nc2nc3c(C(F)(F)F)cc4[nH]ncc4c3s2)ccc1Cl [compound 60] | 300 | 163 | 73 | – | 300 | 4500 | 1500 | 900 | 4400
9 | CC(C)(Nc1ccc(Cl)c(C(=O)NC2CC2)c1)C(=O)Nc1nc2c(C(F)(F)F)cc3[nH]ncc3c2s1 [compound 75] | 500 | 472 | 128 | – | < 100 | 3600 | 2000 | 1100 | 3900
10 | CC(=O)Nc1cc(NC(C)(C)C(=O)Nc2nc3c(C(F)(F)F)cc4[nH]ncc4c3s2)ccc1F [compound 81] | 800 | 444 | 377 | 2400 | < 100 | 4200 | 1300 | 1100 | 4700
11 | CC(C)(Nc1cccc(S(N)(=O)=O)c1)C(=O)Nc1nc2c(C(F)(F)F)cc3[nH]ncc3c2s1 [compound 82] | 200 | 14 | 20 | 900 | < 100 | 2100 | 400 | 400 | 2500
12 | CC(C)(Nc1ccc(Cl)c(C(=O)NCC(N)=O)c1)C(=O)Nc1nc2c(C(F)(F)F)cc3[nH]ncc3c2s1 [compound 85] | 300 | 71 | 1.8 | 1800 | < 100 | 2500 | 1200 | 1300 | 1800
13 | CC(C)(Nc1ccc(Cl)c(O)c1)C(=O)Nc1nc2c(C(F)(F)F)cc3[nH]ncc3c2s1 [compound 95] | 400 | 340 | 105 | – | 100 | – | 1200 | 1100 | 4600
14 | O=C(Nc1nc2ccc3[nH]ncc3c2s1)C1(Nc2ccc(Cl)cc2)CC1 [compound 117] | 500 | 317 | 358 | 2700 | < 100 | 2500 | 2800 | 2200 | –
15 | CCOC(=O)c1cc(NC2(C(=O)Nc3nc4ccc5[nH]ncc5c4s3)CC2)ccc1Cl [compound 118] | 2000 | 236 | – | – | < 100 | – | – | – | –
16 | CC(=O)Nc1cc(NC2(C(=O)Nc3nc4ccc5[nH]ncc5c4s3)CC2)ccc1F [compound 120] | 800 | 164 | – | 4800 | < 100 | – | 1900 | 3300 | –
17 | CCC(=O)Nc1cc(NC2(C(=O)Nc3nc4ccc5[nH]ncc5c4s3)CC2)ccc1F [compound 121] | 500 | 307 | – | 4800 | < 100 | – | 2200 | 3400 | 4600
18 | CNC(=O)c1cc(NC2(C(=O)Nc3nc4ccc5[nH]ncc5c4s3)CC2)ccc1Cl [compound 126] | 1500 | 58 | 145 | – | < 100 | – | 4200 | 3700 | –
19 | CC(=O)Nc1cc(NC(C)(C)C(=O)Nc2nc3ccc4[nH]ncc4c3s2)ccc1Cl [compound 128] | 900 | 39 | – | 3500 | < 100 | 4600 | 1100 | 1700 | 3200
20 | CCC(=O)Nc1cc(NC(C)(C)C(=O)Nc2nc3ccc4[nH]ncc4c3s2)ccc1Cl [compound 129] | 800 | 113 | – | 4800 | < 100 | – | 2700 | 2600 | –
21 | O=C(Nc1nc2ccc3[nH]ncc3c2s1)C(CO)Nc1ccc(Cl)cc1 (centres unmarked) [compound 132] | 600 | – | 379 | 1400 | < 100 | 1900 | 1700 | 1400 | 3700
22 | CC(C)(Nc1ccc(Cl)c(C(N)=O)c1)C(=O)Nc1nc2c(C(F)(F)F)cc3[nH]ncc3c2s1 [compound 135] | 300 | 40 | 83 | 1500 | < 100 | 1600 | 900 | 500 | 4100
23 | CC(C)(Nc1ccc(Cl)c(C(=O)NCCCC(=O)O)c1)C(=O)Nc1nc2c(C(F)(F)F)cc3[nH]ncc3c2s1 [compound 144] | 3300 | 88 | 297 | – | – | – | – | – | –
